# Source: patent publication US20230149324A1, “COMPOSITIONS COMPRISING THYMOL AND AMINO ACIDS FOR USE IN THE TREATMENT OF INFLAMMATORY OR FUNCTIONAL INTESTINAL DISORDERS” (VETAGRO INTERNATIONAL S.R.L., priority 2020, published 2023)
# Tests used:
# CB2 mRNA = assay: Gene expression of cannabinoid receptor CB2 in duodenal and ileal mucosa of weaned piglets fed thymol (real-time PCR); assay type: in vivo, pig; details: d14, compared to the control group; for CB2 mRNA level, duodenum: P=0.004; for CB2 mRNA level, ileum: P=0.0162
# Description: (§1) At the end of the study, 8 animals from each treatment group were sacrificed, samples were collected, and analysed. Duodenal and ileal mucosal scrapings were collected. The duodenum and ileum were longitudinally cut to expose the mucosa, washed with a phosphate-buffered saline solution to remove mucus and digesta, then scraped gently, packed, immediately frozen in liquid nitrogen and stored at -80° C. until the analyses of gene and protein expression. Gene expression was analysed using the method reported by […] et al. [The Journal of Nutrition. 2011; 141:2139-45]. Duodenal and ileal scraping samples obtained on d14 of the study were disrupted by grinding them in liquid nitrogen with mortar and pestle, and then homogenised using a TissueLyser (Qiagen, Hilden, Germany). Total RNA was isolated using a NucleoSpin® RNA Kit (Macherey-Nagel, Duren, Germany) according to the manufacturer's instructions. Genomic DNA contamination was removed by treating the samples with the deoxyribonuclease supplied in the extraction kit ([…], RNase-free; Macherey-Nagel). The RNA yield and quality were determined spectrophotometrically by measuring the absorbance at 260 and 280 nm (A260 and A280 nm, respectively) (Microvolume Mode with SmartPath® Technology, Denovix). One microgram of RNA was reverse transcribed using the iScript cDNA Synthesis Kit (Bio-Rad Laboratories Inc., Hercules, Calif., USA) according to the manufacturer's instructions. Real-time PCR was performed using an iCycler Thermal Cycler system and SybrGreen Supermix (Bio-Rad Laboratories Inc.). The thermocycling protocol provided for an initial denaturation step for 1 minute and 30 seconds at 95° C., followed by 40 denaturation cycles at 95° C. for 15 seconds, and 30 seconds of annealing and extension at 60° C. After amplification, a melt curve analysis was performed for all samples, with slow heating from 55° C. to 95° C. at a rate of 0.5° C./s to validate the absence of non-specific products. […] The average threshold cycle (CT) was determined for each gene of interest, and the geometric average was calculated for HK by assuming that CT is the number of cycles required to reach a fixed arbitrary threshold. Delta CT was calculated, then a modification of the 2^-ΔΔCT method [Livak K J, et al., Methods 2001; 25:402-8] was used to analyse the relative expression (fold changes), which was calculated relative to the control group. […] Animals were blocked in a completely randomised design and data were analysed using GraphPad Prism® software (GraphPad Software, Inc., La Jolla, Calif., USA). Data were analysed using one-way ANOVA followed by Tukey's post hoc test to detect differences among treatments. […]
# FAAH mRNA = assay: Gene expression of ECS enzyme FAAH in duodenal and ileal mucosa of weaned piglets fed thymol (real-time PCR); assay type: in vivo, pig
# Description: (§2) At the end of the study, 8 animals from each treatment group were sacrificed, samples were collected, and analysed. Duodenal and ileal mucosal scrapings were collected. The duodenum and ileum were longitudinally cut to expose the mucosa, washed with a phosphate-buffered saline solution to remove mucus and digesta, then scraped gently, packed, immediately frozen in liquid nitrogen and stored at -80° C. until the analyses of gene and protein expression. Gene expression was analysed using the method reported by […] et al. [The Journal of Nutrition. 2011; 141:2139-45]. […] The RNA yield and quality were determined spectrophotometrically by measuring the absorbance at 260 and 280 nm (A260 and A280 nm, respectively) (Microvolume Mode with SmartPath® Technology, Denovix). […] The average threshold cycle (CT) was determined for each gene of interest, and the geometric average was calculated for HK by assuming that CT is the number of cycles required to reach a fixed arbitrary threshold. Delta CT was calculated, then a modification of the 2^-ΔΔCT method [Livak K J, et al., Methods 2001; 25:402-8] was used to analyse the relative expression (fold changes), which was calculated relative to the control group. […] Animals were blocked in a completely randomised design and data were analysed using GraphPad Prism® software (GraphPad Software, Inc., La Jolla, Calif., USA). […]
# [1] = system: OR1G1 (Olfactory receptor 1G1) mRNA; assay: Gene expression of gut chemosensing marker OR1G1 in duodenal and ileal mucosa of weaned piglets fed thymol (real-time PCR); assay type: in vivo, pig; details: d14, compared to the control group
# Description: as §2
# TRPV1 mRNA = assay: Gene expression of gut chemosensing marker TRPV1 in duodenal and ileal mucosa of weaned piglets fed thymol (real-time PCR); assay type: in vivo, pig; details: for TRPV1 mRNA level, ileum: d14, compared to the control group, P=0.0183
# Description: as §1, with “Denovix).” for “Denovix). One microgram of RNA was reverse transcribed using the iScript cDNA Synthesis Kit (Bio-Rad Laboratories Inc., Hercules, Calif., USA) according to the manufacturer's instructions. Real-time PCR was performed using an iCycler Thermal Cycler system and SybrGreen Supermix (Bio-Rad Laboratories Inc.). The thermocycling protocol provided for an initial denaturation step for 1 minute and 30 seconds at 95° C., followed by 40 denaturation cycles at 95° C. for 15 seconds, and 30 seconds of annealing and extension at 60° C. After amplification, a melt curve analysis was performed for all samples, with slow heating from 55° C. to 95° C. at a rate of 0.5° C./s to validate the absence of non-specific products.”
# CB1 mRNA = assay: Gene expression of cannabinoid receptor CB1 in duodenal and ileal mucosa of weaned piglets fed thymol (real-time PCR); assay type: in vivo, pig; details: d14, compared to the control group; for CB1 mRNA level, ileum: P=0.0054
# Description: as §1, with “Denovix).” for “Denovix). One microgram of RNA was reverse transcribed using the iScript cDNA Synthesis Kit (Bio-Rad Laboratories Inc., Hercules, Calif., USA) according to the manufacturer's instructions. Real-time PCR was performed using an iCycler Thermal Cycler system and SybrGreen Supermix (Bio-Rad Laboratories Inc.). The thermocycling protocol provided for an initial denaturation step for 1 minute and 30 seconds at 95° C., followed by 40 denaturation cycles at 95° C. for 15 seconds, and 30 seconds of annealing and extension at 60° C. After amplification, a melt curve analysis was performed for all samples, with slow heating from 55° C. to 95° C. at a rate of 0.5° C./s to validate the absence of non-specific products.”
# [2] = piglets, 14-day experiment, up to 510 mg thymol/kg feed
# Description: […] piglets (Duroc—Large White) weaned at 28 days of age and with a body weight (BW) of 7.71±1.00 kg were divided into 40 pens (4 piglets per pen, castrated males and females were placed in separate pens) and randomly assigned to one of the following experimental groups (n=32): control group fed with the basal diet (T1), a group fed with the basal diet supplemented with 25.5 mg of thymol/kg feed (T2), a group fed with the basal diet supplemented with 51 mg of thymol/kg feed (T3), a group fed with the basal diet supplemented with 153 mg of thymol/kg feed (T4) and a group fed with the basal diet supplemented with 510 mg of thymol/kg feed (T5). Thymol was provided in a form embedded (microencapsulated) in a lipid matrix (Vetagro SpA, Reggio Emilia, Italy). Concentrations of thymol were selected to meet or exceed the upper limit of inclusion in food and feed established by the European Agency for the Evaluation of Medicinal Products and for the feed. […] The health condition of the animals was monitored during the study. […] Growth parameters, such as FI, ADFI, ADG and F:G (FI—feed intake; ADFI—Average daily feed intake; ADG—Average daily gain; F:G—Feed to gain ratio), were measured in the animals housed in each pen on day 14 (d14) of the experiment.
# [3] = group T4, 153 mg of thymol/kg feed
# [4] = group T5, 510 mg of thymol/kg feed
structure (smiles),measurement,setting,value
Cc1ccc(C(C)C)c(O)c1 [thymol],"CB2 mRNA level, duodenum",CB2 mRNA; [3],Significantly increased
same,"CB2 mRNA level, ileum",CB2 mRNA; [3],Significantly increased
same,"CB2 mRNA level, duodenum",CB2 mRNA; [4],Significantly increased
same,"CB2 mRNA level, ileum",CB2 mRNA; [4],Significantly increased
same,"FAAH mRNA level, ileum","FAAH mRNA; group T4, 153 mg of thymol/kg feed, d14, compared to the control group, P=0.0028",significantly increased
same,"FAAH mRNA level, duodenum","FAAH mRNA; thymol groups T2-T5 (25.5-510 mg/kg feed), d14",Differences in FAAH mRNA levels were not observed
same,"OR1G1 mRNA level, ileum","[1]; group T4, 153 mg thymol/kg feed, P=0.0235",expressed at higher levels
same,"OR1G1 mRNA level, duodenum","[1]; group T5, 510 mg thymol/kg feed, P=0.0210",expressed at higher levels
same,"TRPV1 mRNA level, ileum","TRPV1 mRNA; group T4, 153 mg thymol/kg feed",increased
same,"TRPV1 mRNA level, ileum","TRPV1 mRNA; group T5, 510 mg thymol/kg feed",increased
same,"TRPV1 mRNA level, duodenum","TRPV1 mRNA; group T5, 510 mg thymol/kg of feed, d14, P=0.0382",increased
same,"CB1 mRNA level, ileum",CB1 mRNA; [3],significantly increased
same,"CB1 mRNA level, ileum",CB1 mRNA; [4],significantly increased
same,"CB1 mRNA level, duodenum","CB1 mRNA; group T5, 510 mg of thymol/kg feed, P=0.0209",significantly increased
same,mortality,[2],no mortality was recorded
